Test results reported in PubChem BioAssay AID1919007 (Molecular Pharmacology Branch, DTP, NCI, 2023).
Values joined by “and” are separate entries in the source; they are usually repeats but may differ in a detail not shown here. Equal entries are not always repeated.

Tested on: A498 complex spheroids with HUVEC/MSC, growth
Experiment: Anticancer human tumor A498 cell line growth inhibition [AhR];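 also: seven day exposure starting three days after spheroid seeding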;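 as to viability, T/C: luminescence signal used as a surrogate for viable cells; luminescence viability scaled so 100% equals DMSO vehicle wells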
Conditions: for viability, T/C: stronger effect = lower value
How it was run: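 Complex tumor spheroids co-cultured with HUVEC and human MSC stroma; AhR antagonists tested in combination with standard-of-care and investigational agents. Top concentration at or near clinical Cmax (else 10 microM), half-log dilutions; growth expressed as percent test/control.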

[1] = curve of first compound, second compound 0.1 µM
[2] = curve of first compound, second compound 0.316 µM
[3] = curve of first compound, second compound 1 µM
[4] = curve of first compound, second compound 3.16 µM
[5] = curve of first compound, second compound 10 µM
[6] = second compound 0.1 µM, first compound 0.0316 µM
[7] = second compound 0.1 µM, first compound 0.1 µM
[8] = second compound 0.1 µM, first compound 0.316 µM
[9] = second compound 0.1 µM, first compound 1 µM
[10] = second compound 0.316 µM, first compound 0.0316 µM
[11] = second compound 0.316 µM, first compound 0.1 µM
[12] = second compound 0.316 µM, first compound 0.316 µM
[13] = second compound 0.316 µM, first compound 1 µM
[14] = second compound 1 µM, first compound 0.0316 µM
[15] = second compound 1 µM, first compound 0.1 µM
[16] = second compound 1 µM, first compound 0.316 µM
[17] = second compound 1 µM, first compound 1 µM
[18] = second compound 3.16 µM, first compound 0.0316 µM
[19] = second compound 3.16 µM, first compound 0.1 µM
[20] = second compound 3.16 µM, first compound 0.316 µM
[21] = second compound 3.16 µM, first compound 1 µM
[22] = second compound 10 µM, first compound 0.0316 µM
[23] = second compound 10 µM, first compound 0.1 µM
[24] = second compound 10 µM, first compound 0.316 µM
[25] = second compound 10 µM, first compound 1 µM
[26] = second compound 0.1 µM, first compound 0.00316 µM
[27] = second compound 0.1 µM, first compound 0.01 µM
[28] = second compound 0.316 µM, first compound 0.00316 µM
[29] = second compound 0.316 µM, first compound 0.01 µM
[30] = second compound 1 µM, first compound 0.00316 µM
[31] = second compound 1 µM, first compound 0.01 µM
[32] = second compound 3.16 µM, first compound 0.00316 µM
[33] = second compound 3.16 µM, first compound 0.01 µM
[34] = second compound 10 µM, first compound 0.00316 µM
[35] = second compound 10 µM, first compound 0.01 µM

CCc1c2c(nc3ccc(O)cc13)-c1cc3c(c(=O)n1C2)COC(=O)[C@]3(O)CC + Cc1ccccc1N=Nc1ccc(NC(=O)c2ccnn2C)c(C)c1
IC50 [1]: 57.6 nM
IC50 [2]: 71.1 nM
IC50 [3]: 52.1 nM
IC50 [4]: 44.2 nM
IC50 [5]: 60.4 nM
viability, T/C (second compound 0.1 µM, first compound 0.000949 µM): 89.2%
viability, T/C (second compound 0.1 µM, first compound 0.003 µM): 78.2%
viability, T/C (second compound 0.1 µM, first compound 0.00949 µM): 72.8%
viability, T/C (second compound 0.1 µM, first compound 0.03 µM): 55.9%
viability, T/C (second compound 0.1 µM, first compound 0.0949 µM): 44.1%
viability, T/C (second compound 0.1 µM, first compound 0.3 µM): 38.8%
viability, T/C (second compound 0.316 µM, first compound 0.000949 µM): 84.9%
viability, T/C (second compound 0.316 µM, first compound 0.003 µM): 83.5%
viability, T/C (second compound 0.316 µM, first compound 0.00949 µM): 80.3%
viability, T/C (second compound 0.316 µM, first compound 0.03 µM): 61.6%
viability, T/C (second compound 0.316 µM, first compound 0.0949 µM): 45.4%
viability, T/C (second compound 0.316 µM, first compound 0.3 µM): 45%
viability, T/C (second compound 1 µM, first compound 0.000949 µM): 83.1%
viability, T/C (second compound 1 µM, first compound 0.003 µM): 85.9%
viability, T/C (second compound 1 µM, first compound 0.00949 µM): 78%
viability, T/C (second compound 1 µM, first compound 0.03 µM): 58.2%
viability, T/C (second compound 1 µM, first compound 0.0949 µM): 38.8%
viability, T/C (second compound 1 µM, first compound 0.3 µM): 43.6%
viability, T/C (second compound 3.16 µM, first compound 0.000949 µM): 86.9%
viability, T/C (second compound 3.16 µM, first compound 0.003 µM): 78.7%
viability, T/C (second compound 3.16 µM, first compound 0.00949 µM): 76.2%
viability, T/C (second compound 3.16 µM, first compound 0.03 µM): 54.5%
viability, T/C (second compound 3.16 µM, first compound 0.0949 µM): 40%
viability, T/C (second compound 3.16 µM, first compound 0.3 µM): 34.8%
viability, T/C (second compound 10 µM, first compound 0.000949 µM): 84.3%
viability, T/C (second compound 10 µM, first compound 0.003 µM): 79.5%
viability, T/C (second compound 10 µM, first compound 0.00949 µM): 77.8%
viability, T/C (second compound 10 µM, first compound 0.03 µM): 62.2%
viability, T/C (second compound 10 µM, first compound 0.0949 µM): 41.4%
viability, T/C (second compound 10 µM, first compound 0.3 µM): 39.4%

O=C(C=Cc1cccc(S(=O)(=O)Nc2ccccc2)c1)NO + Cc1ccccc1N=Nc1ccc(NC(=O)c2ccnn2C)c(C)c1
IC50 [1]: 1950 nM
IC50 [2]: 2020 nM
IC50 [3]: 1850 nM
IC50 [4]: 1450 nM
IC50 [5]: 1790 nM
viability, T/C [6]: 84.2%
viability, T/C [7]: 88.4%
viability, T/C [8]: 72%
viability, T/C [9]: 56.9%
viability, T/C (second compound 0.1 µM, first compound 3.16 µM): 45.4%
viability, T/C (second compound 0.1 µM, first compound 10 µM): 19.8%
viability, T/C [10]: 95.6%
viability, T/C [11]: 87.5%
viability, T/C [12]: 75.2%
viability, T/C [13]: 59.5%
viability, T/C (second compound 0.316 µM, first compound 3.16 µM): 46.3%
viability, T/C (second compound 0.316 µM, first compound 10 µM): 20.1%
viability, T/C [14]: 82.4%
viability, T/C [15]: 82.7%
viability, T/C [16]: 68.2%
viability, T/C [17]: 54.6%
viability, T/C (second compound 1 µM, first compound 3.16 µM): 47%
viability, T/C (second compound 1 µM, first compound 10 µM): 18.3%
viability, T/C [18]: 85.5%
viability, T/C [19]: 80.9%
viability, T/C [20]: 63%
viability, T/C [21]: 55.7%
viability, T/C (second compound 3.16 µM, first compound 3.16 µM): 42.4%
viability, T/C (second compound 3.16 µM, first compound 10 µM): 18.8%
viability, T/C [22]: 80.2%
viability, T/C [23]: 75.7%
viability, T/C [24]: 71.1%
viability, T/C [25]: 55.1%
viability, T/C (second compound 10 µM, first compound 3.16 µM): 43.9%
viability, T/C (second compound 10 µM, first compound 10 µM): 17.5%

CC[C@@]1(O)C(=O)OCc2c1cc1n(c2=O)Cc2cc3c(CN(C)C)c(O)ccc3nc2-1 + CC(CO)NC(=O)c1cc(-c2ccc(Cl)cc2)nn(-c2cnn(C)c2)c1=O
IC50 [1]: > 100 nM
IC50 [2]: > 100 nM
IC50 [3]: > 100 nM
IC50 [4]: > 100 nM
IC50 [5]: 75.7 nM
viability, T/C (second compound 0.1 µM, first compound 0.000316 µM): 105%
viability, T/C (second compound 0.1 µM, first compound 0.001 µM): 98.4%
viability, T/C [26]: 103%
viability, T/C [27]: 94.6%
viability, T/C [6]: 86.7%
viability, T/C [7]: 68.2%
viability, T/C (second compound 0.316 µM, first compound 0.000316 µM): 93.2%
viability, T/C (second compound 0.316 µM, first compound 0.001 µM): 102%
viability, T/C [28]: 96.4%
viability, T/C [29]: 82.4%
viability, T/C [10]: 81.3%
viability, T/C [11]: 64.8%
viability, T/C (second compound 1 µM, first compound 0.000316 µM): 95.8%
viability, T/C (second compound 1 µM, first compound 0.001 µM): 106%
viability, T/C [30]: 100%
viability, T/C [31]: 92.2%
viability, T/C [14]: 76.9%
viability, T/C [15]: 65.3%
viability, T/C (second compound 3.16 µM, first compound 0.000316 µM): 92%
viability, T/C (second compound 3.16 µM, first compound 0.001 µM): 87%
viability, T/C [32]: 88.6%
viability, T/C [33]: 71.1%
viability, T/C [18]: 71.2%
viability, T/C [19]: 60.1%
viability, T/C (second compound 10 µM, first compound 0.000316 µM): 77%
viability, T/C (second compound 10 µM, first compound 0.001 µM): 74.2%
viability, T/C [34]: 76.6%
viability, T/C [35]: 63.1%
viability, T/C [22]: 57.1%
viability, T/C [23]: 47.7%

CC1COCCN1c1cc(-c2ccnn2C)c2ccnc(-c3ccn[nH]3)c2n1 (configuration not stated) + CC(CO)NC(=O)c1cc(-c2ccc(Cl)cc2)nn(-c2cnn(C)c2)c1=O
IC50 [1]: 77.7 nM
IC50 [2]: 78.8 nM
IC50 [3]: 72.7 nM
IC50 [4]: 62 nM
IC50 [5]: 41.7 nM
viability, T/C [26]: 96.4%
viability, T/C [27]: 103%
viability, T/C [6]: 82.3%
viability, T/C [7]: 40.5%
viability, T/C [8]: 20.1%
viability, T/C [9]: 13%
viability, T/C [28]: 90%
viability, T/C [29]: 104%
viability, T/C [10]: 76%
viability, T/C [11]: 44.1%
viability, T/C [12]: 17.1%
viability, T/C [13]: 14.3%
viability, T/C [30]: 93.6%
viability, T/C [31]: 92.6%
viability, T/C [14]: 78.6%
viability, T/C [15]: 39.1%
viability, T/C [16]: 18.4%
viability, T/C [17]: 15.7%
viability, T/C [32]: 88.6%
viability, T/C [33]: 84.9%
viability, T/C [18]: 70.7%
viability, T/C [19]: 34.9%
viability, T/C [20]: 21.4%
viability, T/C [21]: 15.4%
viability, T/C [34]: 65.7%
viability, T/C [35]: 68.5%
viability, T/C [22]: 55.1%
viability, T/C [23]: 31.6%
viability, T/C [24]: 20.2%
viability, T/C [25]: 14%

CC1COCCN1c1cc(-c2ccnn2C)c2ccnc(-c3ccn[nH]3)c2n1 (configuration not stated) + Cc1cncc(-c2nc(NCCc3c[nH]c4ccccc34)c3ncn(C(C)C)c3n2)c1
IC50 [1]: 111 nM
IC50 [2]: 129 nM
IC50 [3]: 105 nM
IC50 [4]: 24.4 nM
IC50 [5]: < 3.16 nM
viability, T/C [26]: 94.3%
viability, T/C [27]: 102%
viability, T/C [6]: 90.6%
viability, T/C [7]: 52.5%
viability, T/C [8]: 24.5%
viability, T/C [9]: 19.4%
viability, T/C [28]: 98.5%
viability, T/C [29]: 103%
viability, T/C [10]: 89%
viability, T/C [11]: 57.4%
viability, T/C [12]: 26%
viability, T/C [13]: 20.5%
viability, T/C [30]: 91.3%
viability, T/C [31]: 96.8%
viability, T/C [14]: 81.5%
viability, T/C [15]: 52.2%
viability, T/C [16]: 23.5%
viability, T/C [17]: 21.4%
viability, T/C [32]: 49.4%
viability, T/C [33]: 50.1%
viability, T/C [18]: 51.4%
viability, T/C [19]: 41.2%
viability, T/C [20]: 22.8%
viability, T/C [21]: 19.5%
viability, T/C [34]: 3.71%
viability, T/C [35]: 4.4%
viability, T/C [22]: 6.04%
viability, T/C [23]: 3.64%
viability, T/C [24]: 4.9%
viability, T/C [25]: 10.9%

Nc1ncn(C2CC(O)C(CO)O2)c(=O)n1 (configuration not stated)
viability, T/C (compound 0.00316 µM): 95.4% and 108% and 105%
viability, T/C (compound 0.01 µM): 101% and 108% and 107%
viability, T/C (compound 0.0316 µM): 94% and 91.7% and 104%
viability, T/C (compound 0.1 µM): 87.1% and 96.7% and 97.3%
viability, T/C (compound 0.316 µM): 97.1% and 81.1% and 97.3%
viability, T/C (compound 1 µM): 72.5% and 71.4% and 83.5%
IC50 (curve of compound): > 1000 nM
